Experimental data published in patent publication US8865655B2, “Depsipeptides and their therapeutic use” (Karus Therapeutics Limited, priority 2006, dated 2014).

Test system: HDAC (Hela Nuclear Extract)
Test: In vitro HDAC fluorescent activity assay (Biomol kit, Fluor de Lys substrate) with Hela Nuclear Extract
Format: biochemical
Conditions: compounds reduced with 30 mM DTT prior to analysis; diluted Hela Nuclear Extract; 37° C. for 1 hour; mean of duplicate samples
Experimental: In vitro HDAC assays were performed using a HDAC fluorescent activity assay kit (Biomol, UK) according to the manufacturer's instructions. Compounds were reduced prior to analysis; 1 mM compound was reduced with 30 mM DTT in DMSO overnight at room temperature, protected from light. Reactions were then set up in a 96-well plate. For each reaction 10 μl compound (5× required concentration in assay buffer) was mixed with […] diluted Hela Nuclear Extract (30-fold in assay buffer). Serial dilutions were set up for each compound. Reactions containing Hela extract only and assay buffer only were also set up. 25 μl diluted Fluor de Lys™ substrate (100-fold in assay buffer) was added to each reaction, which were then incubated at 37° C. for 1 hour. The reaction was stopped by addition of 50 μl Fluor de Lys™ Developer (20-fold dilution in assay buffer, plus TSA diluted 100-fold). The reactions were then incubated at room temperature for 10 minutes before fluorescence was measured using a CytoFluor II Fluorescence Multiwell Plate Reader and CytoFluor II software with filters set at […] for excitation and […] for emission. Inhibition of in vitro HDAC activity was determined for mean values of duplicate samples as percentages relative to HeLa extract only reactions. IC50 values were calculated using GraphPad Prism software.

SMILES | IC50 [nM]
CC(C)[C@H]1NC(=O)[C@@H](Cc2ccccc2)NC(=O)[C@@H](C)NC(=O)C[C@@H](/C=C/CCS)OC(=O)CNC1=O [Compound 16, (6R,9R,12R,16S)-9-Benzyl-6-isopropyl-16-((E)-4-mercapto-but-1-enyl)-12-methyl-1-oxa-4,7,10,13-tetraaza-cyclohexadecane-2,5,8,11,14-pentaone] | 47 ± 9.9
CC(=O)SCC/C=C/[C@@H]1CC(=O)N[C@H](C)C(=O)N[C@H](Cc2ccccc2)C(=O)N[C@H](C(C)C)C(=O)NCC(=O)O1 [Compound 17, Thioacetic acid S-[(E)-4-((6R,9R,12R,16S)-9-benzyl-6-isopropyl-12-methyl-2,5,8,11,14-pentaoxo-1-oxa-4,7,10,13-tetraaza-cyclohexadec-16-yl)-but-3-enyl]ester] | 126 ± 5.3
